The values below come from patent EP0807624B1, “RETINOIC ACID DERIVATIVES” (THE SALK INSTITUTE FOR BIOLOGICAL STUDIES, priority 1991, dated 1993).

Some results are limits rather than exact numbers.

The test system of one assay is RAR-α. Put plainly: Cotransfection assay in CV-1 cells. It counts as cell-based, human. The settings on record: RARα; maximal response relative to retinoic acid at 10^-5 M.
In the next assay the test system is RAR-β. Put plainly: Cotransfection assay in CV-1 cells. It is filed as cell-based, human. The following applies: RARβ; maximal response relative to retinoic acid at 10^-5 M.
A further assay has as its system RAR-γ. Put plainly: Cotransfection assay in CV-1 cells. It is filed as cell-based, human. The following applies: RARγ; maximal response relative to retinoic acid at 10^-5 M.
The target in another assay is T1, RXR-β (Mus musculus, UniProt P28704).
T1 sequence (P28704 1-520): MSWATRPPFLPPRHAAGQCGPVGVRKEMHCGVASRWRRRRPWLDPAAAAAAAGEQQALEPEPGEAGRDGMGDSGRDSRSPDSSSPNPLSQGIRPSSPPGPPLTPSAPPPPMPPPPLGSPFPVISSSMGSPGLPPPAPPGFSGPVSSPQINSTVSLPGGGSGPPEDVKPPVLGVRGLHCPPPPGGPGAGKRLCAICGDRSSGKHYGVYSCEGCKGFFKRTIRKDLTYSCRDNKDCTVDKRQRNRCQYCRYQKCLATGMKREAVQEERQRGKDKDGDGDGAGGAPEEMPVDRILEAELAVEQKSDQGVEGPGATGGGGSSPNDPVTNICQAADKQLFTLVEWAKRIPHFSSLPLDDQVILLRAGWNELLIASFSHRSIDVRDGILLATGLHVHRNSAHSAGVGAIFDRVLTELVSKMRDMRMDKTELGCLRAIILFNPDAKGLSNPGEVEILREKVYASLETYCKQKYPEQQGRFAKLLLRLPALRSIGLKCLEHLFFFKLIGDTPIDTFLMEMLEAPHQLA
The assay can be described thus: Cotransfection assay in CV-1 cells. It counts as cell-based. The following applies: RXRβ; maximal response relative to retinoic acid at 10^-5 M.

The next assay has as its target T2, RXR-γ (Mus musculus, UniProt P28705).
T2 sequence (P28705 1-463): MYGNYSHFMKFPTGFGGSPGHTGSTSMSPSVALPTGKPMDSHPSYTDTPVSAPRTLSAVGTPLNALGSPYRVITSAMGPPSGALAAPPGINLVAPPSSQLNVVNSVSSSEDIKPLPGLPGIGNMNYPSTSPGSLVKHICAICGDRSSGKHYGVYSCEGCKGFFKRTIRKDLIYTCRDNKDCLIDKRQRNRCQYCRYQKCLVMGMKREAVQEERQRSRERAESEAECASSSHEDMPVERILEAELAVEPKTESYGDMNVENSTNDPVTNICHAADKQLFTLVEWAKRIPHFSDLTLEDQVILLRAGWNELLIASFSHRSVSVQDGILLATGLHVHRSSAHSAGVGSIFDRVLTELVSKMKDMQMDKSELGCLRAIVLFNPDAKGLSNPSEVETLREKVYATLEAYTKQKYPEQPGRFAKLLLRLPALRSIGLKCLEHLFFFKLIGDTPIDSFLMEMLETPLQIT
The assay can be described thus: Cotransfection assay in CV-1 cells. It counts as cell-based. The settings on record: RXRγ; maximal response relative to retinoic acid at 10^-5 M.

The subject of a further assay is RXR-α. Put plainly: Cotransfection assay in CV-1 cells. It counts as cell-based, human. The following applies: RXRα; maximal response relative to retinoic acid at 10^-5 M.
The subject of assay [1] is human primary metastatic melanoma cell line c81-46c. The assay can be described thus: In vitro proliferation of melanoma cell line. It is filed as cell-based. The settings on record: read-out: % Growth inhibition; for inhibition at 0.01 µM: 0.01 µM added; for inhibition at 1 µM: 1 µM added.
Assay [2] deals with normal human epidermal keratinocytes (NHEK534 cell line). The assay can be described thus: cells. The settings on record: Keratinocyte, read-out: EC50 for inhibition of differentiation.
In assay [3] the test system is murine melanoma cell line Clone M3. The assay can be described thus: In vitro proliferation of melanoma cell line. The following applies: Mus musculus, read-out: % Growth inhibition.
A further assay concerns HL60R cells. The assay can be described thus: Differentiation of HL60R cells (NBT). The settings on record: concentrations up to 10 µM. It is filed as cell-based.
For another assay, the system named is HL60 cells. Put plainly: cells. The settings on record: Homo sapiens, HL-60, 144 h, read-out: EC-50 for differentiation, as determined by NBT.

Consider `CC1=C(/C=C/C(C)=C\C=C\C(C)=C\C(=O)O)C(C)(C)CCC1O` (stereo not drawn) [4-hydroxy-9-cis-retinoic acid], for which the Efficacy was 65% with RAR-α; 71% in the assay with RAR-β; 81% with RAR-γ; 143% on RXR-β; 115% at RXR-γ.

In the case of `CC1=C(/C=C/C(C)=C\C=C\C(C)=C\C(=O)O)C(C)(C)CCC1=O` [4-keto-9-cis-retinoic acid], the Efficacy is recorded as 104% with RXR-α, 105% at RXR-β and 133% at RXR-γ.

`CC1=C(/C=C/C(C)=C\C=C\C(C)=C\C(=O)O)C(C)(C)CCC1` [9-cis-retinoic acid]: the inhibition at 0.01 µM is -28% in [1] and -49% in [3]. For the same compound, the inhibition at 1 µM was -45% in [1] and -85% in assay [3]. Also, in assay [2], the EC50 amounted to 20 ± 2.8 nM.

`CC1=C(/C=C/C(=C\C=C\C(C)=C\C(=O)O)c2ccccc2)C(C)(C)CCC1` [9-phenyl-9-cis-retinoic acid]: the Efficacy in the assay with RAR-α was under 2%; in the assay on RAR-β, 39%; in the assay on RAR-γ, 59%; in the assay with RXR-α, 76%; on RXR-β it was 88%; at RXR-γ, 77%.

As to `CC1=C(/C=C/C(C)=C/C=C/C(C)=C/C(=O)O)C(C)(C)CCC1` [all-trans-retinoic acid], the “differentiation (NBT) of HL60R cells” value in the assay with HL60R cells is on record as “resistant to differentiation”. In assay [1], the inhibition at 0.01 µM is -17% and the inhibition at 1 µM was -44%. Further, in the assay with HL60 cells, the EC50 came to 2000 nM. Also, the EC50 in assay [2] turned out to be 20 ± 2.8 nM.
